According to US12139498B1, “Positive allosteric modulators of the muscarinic acetylcholine receptor M4” (Vanderbilt University, priority 2023, dated 2024):

What was measured:
[1] = test system: 68 primary molecular targets; test: Eurofins LeadProfilingScreen off-target panel (binding); conditions: 10 μM (binding), all targets except human muscarinic 2
Protocol: Compound 70 was tested using Eurofins LeadProfilingScreen®, which detects potential off-target activity and determines relative selectivity. The screen includes 68 primary molecular targets, including several CNS targets recommended by the EMEA (European Medicines Evaluation Agency) to evaluate drug dependence potential.

[2] = Fraction unbound in human plasma; assay type: in vitro ADME; conditions: read-out: Human Fu (plasma)
Protocol: (§1) Compound 70 was tested in several in in vitro assays to investigate both metabolism and pharmacokinetics. These assays may be performed according to known methods as generally described in the following references: Conde-Ceide et al. ACS Med. Chem. Lett. 2015, 6, 716-720; Morris et al. J. Med. Chem. 2014, 57, 10192-10197; and Bubser et al. ACS Chem. Neurosci. 2014, 5, 920-942.

[3] = Fraction unbound in cyno plasma; assay type: in vitro ADME; conditions: cynomolgus monkey, read-out: Cyno Fu (plasma)
Protocol: as §1

male Sprague-Dawley rats = test: Amphetamine-induced hyperlocomotion in rats; conditions: 100 mg/kg i.p., amphetamine 0.25 mg/kg s.c., p<0.001
[4] = Fraction unbound in rat plasma; assay type: in vitro ADME; conditions: read-out: Rat Fu (plasma)
Protocol: as §1

[5] = Fraction unbound in dog plasma; assay type: in vitro ADME; conditions: read-out: Dog Fu (plasma)
Protocol: as §1

Human M4 = target: T1, Human M4 (Homo sapiens, UniProt P08173); test: M4 cell-based functional assay (calcium mobilization); design: expressed in transfected cells
T1 sequence (P08173 1-479): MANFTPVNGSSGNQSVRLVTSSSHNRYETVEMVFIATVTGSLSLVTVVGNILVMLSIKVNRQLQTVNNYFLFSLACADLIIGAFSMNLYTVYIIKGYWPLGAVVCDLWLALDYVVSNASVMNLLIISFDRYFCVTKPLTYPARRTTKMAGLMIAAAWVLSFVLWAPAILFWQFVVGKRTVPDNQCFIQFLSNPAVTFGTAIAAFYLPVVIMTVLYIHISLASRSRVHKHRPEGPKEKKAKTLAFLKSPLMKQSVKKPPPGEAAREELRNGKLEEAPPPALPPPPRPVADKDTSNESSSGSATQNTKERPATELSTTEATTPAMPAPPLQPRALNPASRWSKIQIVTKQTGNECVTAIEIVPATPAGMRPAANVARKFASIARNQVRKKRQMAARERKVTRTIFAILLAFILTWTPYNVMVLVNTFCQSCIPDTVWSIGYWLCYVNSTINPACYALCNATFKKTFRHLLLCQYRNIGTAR
Method in brief: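 CHO-K1 cells stably co-expressing hM4 and chimeric Gqi5, loaded with Fluo-4-AM (1.15 μM final, 45 min, 37° C). Compound added ~140 s before EC20 then EC80 acetylcholine; calcium flux by kinetic fluorescence (ex 480/em 530 nm), expressed as fold over basal and normalized to maximal ACh response (1 mM).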

## Cc1c(N2CCc3nc(C4(F)CC4)sc3C2)nc2nn(C)c(=O)n2c1C [Compound 70, 7-(2-(1-fluorocyclopropyl)-6,7-dihydrothiazolo[5,4-c]pyridin-5(4H)-yl)-2,5,6-trimethyl-[1,2,4]triazolo[4,3-a]pyrimidin-3(2H)-one]
[1]
  inhibition of each target in the LeadProfilingScreen: < 50%
[2]
  fraction unbound: 0.217
[3]
  fraction unbound: 0.177
Male Sprague-Dawley rats
  percent reversal of amphetamine-induced hyperlocomotion: 61.1%
[4]
  fraction unbound: 0.267
[5]
  fraction unbound: 0.232
Human M4; % ACh maximum at 30 μM
  Emax at 30 µM: 77%
Human M4; CHO-K1 hM4-Gqi5 cells, calcium flux, increase in EC20 acetylcholine response
  EC50: 4 nM
